Data from US8178118B2, “Magnesium compositions and uses thereof for cognitive function” (Magceutics, Inc., priority 2007, dated 2012).

Tests used:
[1] = magnesium absorption rate in rats (intake versus fecal excretion, ICP-AES); settings: FIG. 4, Example 5, Mg gluconate in skim milk or water with 5 weight percent lactose, MgCl2 in water
Experimental: Fifty 3-month old, male Sprague Dawley (SD) rats were divided into five groups of ten rats. Rats of this age and older are considered adult. Each of the rats was placed in a separate metabolic cage equipped with urine- and feces-collecting wells. All of the rats were maintained in a temperature-controlled room (22° C. to 25° C.) with a dark period from 08:00 pm to 08:00 am daily. From day 1 through day 3, each rat was fed daily 15 g of magnesium-free food and de-ionized water. […] The medium was skim milk for Composition 1 and Group 1, milk prepared from powdered milk, by diluting the powdered milk with water to obtain a composition like that of skim milk, for Composition 2 and Group 2, 1% milk cream in water for Composition 3 and Group 3, water comprising 5 weight percent lactose for Composition 4 and Group 4, and water for the Control Composition and Control Group. […]
From day 4 through day 10, urine from each rat was collected daily. The collected urine from each rat was then pooled together and the total volume of the pooled urine from each rat was recorded. The pooled urine from each rat, in an amount of […], was analyzed for magnesium content using an inductively coupled plasma-atomic emission spectrometer (ICP-AES). […] The pooled feces from each rat, in an amount of 0.5 g, were analyzed for magnesium content using an ICP-AES. […]

rats = test: novel object recognition test in rats; format: in vivo, rat
Experimental: In this example, the effect of magnesium supplementation on recognition memory was tested. Three groups of rats were used in these experiments: 1) young rats (three months old); aging rats (12-14 months old), and; 3) magnesium-treated aging rats (12-14 months old, diet supplemented with 6 mg/kg MgCl2 from 8 months of age). We used experimentally naive, female, Sprague-Dawley young […], aging (12-14 month old) and […] rats (Charles River) at the beginning of the behavior experiments. They were housed two per cage with continuous access to food and water under a 12:12 light-dark cycle, with light onset at 8:00 a.m. […] All experiments involving animals were approved by the Massachusetts Institute of Technology's and Tsinghua University Committees on Animal Care.
The three groups of rats were tested for recognition memory using an object recognition test with a single exposure to the object during training. The task is based on the natural tendency of rodents to explore new objects and tests the animals' memory capacity for distinguishing novel versus familiar objects.
Briefly, the rats were first individually habituated to the personnel and then to open-field arena during 2 weeks. […] The retention intervals were 10 min and 24 hours. Objects were cleaned thoroughly between trials with 20% ethanol solution to ensure the absence of olfactory cues. The particular objects for a given trial were randomly determined, but each object was used for only one trial per rat. Memory of the familiar object is associated with increased exploration of the new object and an exploration index (% correct) is calculated as new object inspection time/30.
In this example, the effect of magnesium supplementation on memory consolidation was studied. […]
Briefly, the rats were first individually habituated to the personnel and then to open-field arena during 2 weeks. […] The particular objects for a given trial were randomly determined, but each object was used for only one trial per rat. […]

[2] = test system: young, aging and aged rats
Experimental: Twenty 2-month old, male Sprague Dawley (SD) rats were housed in a temperature-controlled room (22° C. to 25° C.) with a dark period from 08:00 pm to 08:00 am daily. […] Over 7 days before the training and trial period began, each rat was handled and habituated to the maze and to Kellogg's Froot Loop cereal.
Each rat underwent a test of one trial, followed by an interval of 10-minutes, followed by another trial, and so on, for a total of 6 trials in one day. In each trial, each rat went through a sample run in the maze, followed by an interval of 15 seconds, followed by a choice run in the maze. In the sample run, the subject rat was forced to go to the left or to the right by the presence of a block, according to a pseudorandom sequence (with an equal number of left turns and right turns, and no more than two consecutive turns in the same direction). As a reward, Froot Loop cereal was available in the food well at the end of the run, regardless of the direction that was taken by virtue of the block. In the choice run, the block that had been present in the preceding sample run was removed, and the rat was allowed to choose to go to the left or to the right. As a reward, Froot Loop cereal was available in the food well at the end of the run, only when the rat had made a “correct choice” by choosing the direction opposite that taken in the preceding sample run. […]
On the first day (designated day 0) of the feeding of the two groups, as just described, each rat underwent a preliminary test of one trial, followed by an interval of 10 minutes, followed by another trial, and so on, for a total of 4 trials in one day. […] In this preliminary test, the choice accuracy level, or ratio of correct choices made, co, to the number of number of trials in the test, no, was determined for each rat. […]
Three groups of animals (young, aging, and magnesium-treated aging rats) were used. […] Spatial working memory was assessed using a T-maze non-matching-to-place task. […] Spatial working memory was first assessed on an elevated T-maze. […]

diabetic patients = settings: nearly 1 g of magnesium daily for 1 month; cited from earlier work
[3] = test system: mice genetically altered to present symptoms of Alzheimer's disease (AD); test: modified Morris water maze test in AD mice; format: in vivo, mouse; settings: AD mice aged 13 months, FIG. 16
Experimental: Another group, the control group, of 10 mice that were genetically altered to present symptoms of AD were fed a Control Diet, a diet of normal solid food and water, for 30 days.
The pool used was a pool of water in a circular metal tank (150 cm in diameter and 50 cm in depth) having a water height of 30 cm and a water temperature that was maintained at ˜22° C. The pool was placed in a moderately lit area and surrounded by a black curtain. An acrylic platform (15 cm in diameter) was placed 2 cm below the surface of the water in the middle of one quadrant of the pool, equidistant from the center and the edge of the pool. Outside the pool, a cue was placed so as to be visible to a mouse in the maze, allowing a mouse to use it as a landmark for spatial orientation. The cue remained unchanged throughout the test period.
On the first day of the training and testing period, the water in the pool was transparent, such that the platform was visible. Each mouse was trained to swim towards the platform and to stand on the platform so as not to be submerged in the pool. […] The amount of time the mouse took to find the platform, referred to as “escape latency,” was recorded for each trial.
On the second day of the training and testing period, a small quantity of milk was added to the water in the pool, such that the pool was opaque and the platform was no longer visible. […]

[4] = brain (brainstem) magnesium concentration in AD mice, ICP-OES; format: in vivo, mouse; settings: AD mice on magnesium diet from 5 month to 21 month of age, FIG. 26A
AD mice = test: physical motility (swimming speed) during water maze test; format: in vivo, mouse; settings: 7 months and 15 months of treatment, FIG. 21
Experimental: The swimming speed of each mice is calculated from off-analysis.

[Cl-].[Cl-].[Mg+2] [MgCl2, magnesium chloride]
magnesium absorption rate of the higher dosage compositions (magnesium loading capacity) [1]: less desirable | novel object exploration preference, 10 minute retention interval (rats; aging rats (12-14 months old), 6 mg/kg MgCl2 from 8 months of age, single exposure training, P<0.0001): preferentially explored the novel object to the same extent as young rats | ability to distinguish novel versus familiar objects after 24 hours (rats; aging rats, single exposure training, all groups): lose there ability to distinguish novel versus familiar objects | preference for the novel object, 24-hour retention interval after spaced training (rats; two training sessions separated by 10 minutes, magnesium-treated aging rats): retained a high level of preference | asymptotic choice accuracy level after 8 days of training ([2]; all three groups (young, aging, magnesium-treated aging rats)): ~94% | learning in non-matching-to-place task, 15 sec delay ([2]; magnesium-treated aging rats versus aging rats, p<0.05): performed significantly better from their first trials | spatial working memory with increased delay between sample and choice trials ([2]; magnesium-treated aging rats, p<0.05): significantly enhanced the performance of the aging rats at 2 and 5 min delays

[O]=[Mg] [magnesium oxide]
increase of serum magnesium level (diabetic patients): about 10% | metabolic control (diabetic patients): only minor improvement in metabolic control

CC12CC3CC(C)(C1)CC(N)(C3)C2 [memantine]
reduction of the effects of AD on learning capacity [3]: better at reducing the effects of AD on learning capacity than aricept

magnesium
relation of magnesium intake to brain magnesium [4]: linearly correlated to the amount of brain magnesium | mobility during the water maze test (AD mice): greatly increased mobility

magnesium gluconate
magnesium absorption rate of the higher dosage compositions (magnesium loading capacity) [1]: suitably close to those associated with the lower dosage compositions
